What was measured:
irradiated NOD/SCID mice = assay: In-vivo homing and engraftment of cultured human NK cells; conditions: 4 days post infusion
Experimental: NK cells were expanded with or without 2.5 mM or 5.0 mM nicotinamide, as described above. After 2-3 weeks in culture, similar numbers (15×10^6) of cells were infused into irradiated (350 Rad) NOD/SCID mice. Mice were sacrificed 4-days post infusion. Spleen, bone marrow and peripheral blood were analyzed for the homing and engraftment of human NK (CD45+CD56+) cells using […], in order to distinguish them from endogenous cells. Engraftment is expressed as the % of NK cells having the transplanted lineage (CD45+CD56+) using anti-human specific antibodies from the total number of mouse endogenous cells identified in the tissue.
Irradiated (350 Rad) NOD/SCID mice received 15×10^6 cells from human peripheral blood NK (T-cell depleted) cultures maintained for up to 3 weeks with (NAM 2.5 mM and NAM 5 mM) or without (NAM 0) nicotinamide. Upon sacrifice of the mice 4 days post infusion, samples of spleen, bone marrow and peripheral blood were evaluated by FACS for the presence of human NK cells (CD56+CD45+) using human specific Abs.

[1] = test system: purified cord-blood derived CD56+ cells; assay: Inhibitory CD56+NKG2A cell fraction in cultured cord blood CD56+ cells (FACS); format: cell-based, human; conditions: 1, 2.5 and 5 mM nicotinamide, 3 weeks culture
Experimental: 2. Purified CD56+ or CD56+CD3− cells from total nuclear or mononuclear cells or from the fraction depleted from CD34+ or CD133+ cells were cultured in culture bags, T-Flasks or 24 well plates at a concentration of 1-100×10^4 cells/ml in MEMα/10% FCS or CellGro SCGM (Cell Genix)/5% Human Serum/LiforCell® FBS Replacement (Lifeblood Products) containing the following human recombinant cytokines:, interleukin-2 (IL-2) (5-50 ng/ml), interleukin-15 (IL-15), FLT-3 or SCF or FLT3 and SCF or IL-2 and IL-15 or IL-2 only (Perpo Tech, Inc., Rocky Hill, N.J., USA), with or without nicotinamide, and incubated at 37° C. in a humidified atmosphere of 5% CO2 in air. The cultures were topped up once or twice a week with the same volume of fresh medium containing growth factors with or without nicotinamide. […]
The cells were washed with a PBS solution containing 1% BSA, and stained (at 4° C. for 30 min) with fluorescein isothiocyanate (FITC)- or phycoerythrin (PE)-conjugated antibodies or allophycocyanin (APC). The cells were then washed in the above buffer and analyzed using a FACScalibur® flow cytometer (Becton Dickinson, San Jose, Calif., USA). […] Emission of 10^4 cells was measured using logarithmic amplification, and analyzed using the CellQuest software (Becton Dickinson). Cells stained with FITC, PE and APC-conjugated isotype control antibodies were used to determine background fluorescence. […]

[2] = test system: cord-blood derived NK cells; assay: Expression of CXCR4, CD49e and CD62L receptors on cultured cord blood NK cells (FACS); format: cell-based, human; conditions: 2.5 or 5 mM nicotinamide, three weeks, vs cytokines only
Experimental: 2. Purified CD56+ or CD56+CD3− cells from total nuclear or mononuclear cells or from the fraction depleted from CD34+ or CD133+ cells were cultured in culture bags, T-Flasks or 24 well plates at a concentration of 1-100×10^4 cells/ml in MEMα/10% FCS or CellGro SCGM (Cell Genix)/5% Human Serum/LiforCell® FBS Replacement (Lifeblood Products) containing the following human recombinant cytokines:, interleukin-2 (IL-2) (5-50 ng/ml), interleukin-15 (IL-15), FLT-3 or SCF or FLT3 and SCF or IL-2 and IL-15 or IL-2 only (Perpo Tech, Inc., Rocky Hill, N.J., USA), with or without nicotinamide, and incubated at 37° C. in a humidified atmosphere of 5% CO2 in air. The cultures were topped up once or twice a week with the same volume of fresh medium containing growth factors with or without nicotinamide. Eventually cultures can be supplemented once or several times a week with IL-2 and or IL-2 and IL-15. To estimate the number of cells in culture, cell samples were stained with trypan blue for counting. At various time points, samples were taken for FACS analysis to assay the relative fractions of NK cells, CD56+CD3−, CD56+CD3+, CD34+CD56+, CD56+CD16+ and/or CD56+ NKG2A cells.
The cells were washed with a PBS solution containing 1% BSA, and stained (at 4° C. for 30 min) with fluorescein isothiocyanate (FITC)- or phycoerythrin (PE)-conjugated antibodies or allophycocyanin (APC). The cells were then washed in the above buffer and analyzed using a FACScalibur® flow cytometer (Becton Dickinson, San Jose, Calif., USA). The cells were passed at a rate of up to 1000 cells/second, using a 488 nm or 661 nm argon laser beam as the light source for excitation. Emission of 10^4 cells was measured using logarithmic amplification, and analyzed using the CellQuest software (Becton Dickinson). Cells stained with FITC, PE and APC-conjugated isotype control antibodies were used to determine background fluorescence.

NC(=O)c1cccnc1 [nicotinamide]
localization and engraftment, higher vs lower nicotinamide concentration (irradiated NOD/SCID mice; 5 mM compared with 2.5 mM): stronger effect | localization and engraftment of human NK cells (CD56+CD45+) in spleen, bone marrow and peripheral blood (irradiated NOD/SCID mice; 15x10^6 cells cultured with 2.5 mM or 5 mM nicotinamide): increased localization and engraftment | prevalence of the inhibitory CD56+NKG2A cell fraction among NK cells [1]: significant and dose dependent reduction | expression of CD49e (adhesion receptor) [2]: elevated expression | expression of CD62L (trafficking receptor) [2]: strongly enhanced expression | expression of CXCR4 (migratory receptor) [2]: strongly enhanced expression

From patent US20130011376A1, “Methods for Enhancing Natural Killer Cell Proliferation and Activity” (GAMIDA CELL LTD., priority 2009, published 2013)
